The test system of one assay is NT2.5 tumor cell line. The experiment in a line: NT2.5 tumor challenge in immunized FVB/n mice. Particulars: for mean tumor volumes at day 30: FVB/n mice, 5×10^6 NT2.5 cells s.c. two weeks after final immunization, data not shown; for doubling time: NT2.5 tumor in vaccinated FVB/N mice. Type of assay: in vivo, mouse. The text has this: (§1) The human EGFR disulfide pairings have been defined. Based on the high homology between EGFR and HER-2, the 628-647 epitope to 626-649 to incorporate two disulfide bonds between Cys-626 and Cys-634, and Cys-630 and Cys-642. Differential side chain protection and a specialized deprotection and oxidation successfully generated the cyclized product with a desired secondary structural characteristics as determined by CD measurements. […] Cyclized antibodies elicited twice the level of specific lysis compared to non-cyclized antibodies in an ADCC assay (11 and 5.6% respectively). To investigate the in vivo effect of these peptide vaccines, inbred FVB/N mice were immunized with the constructs. Both constructs were immunogenic in these mice with the cyclized construct generating higher titers. These mice were then challenged with the NT2.5 tumor cell line which has an FVB/N background.
To better understand the potential clinical benefit associated with introducing conformational constraints into B-cell epitope vaccines, both FVB/n and neu-N transgenic mice were challenged with the tumor cell line NT2.5 derived from a spontaneous mammary tumor isolated from a neu-N transgenic mouse. As a consequence of neu over-expression these mice develop spontaneous mammary adenocarcinomas in a manner similar to that observed in human breast cancer patients, and are therefore a suitable model for human breast cancer studies. […] (lower abdomen) two weeks after final immunization. Tumor measurements were taken twice weekly until day 55. Tumor volumes were calculated by the formula (long measurement×short measurement^2)/2. Note that after day 30 the tumors in FVB/n mice begin to regress, indicative of rejection of the tumor. With subsequent tumor studies using FVB/n mice, tumors were measured to day 30.

Another assay relates to FVB/n mice. Description: Immunogenicity in FVB/n mice, antibody titers by direct ELISA. Type of assay: in vivo, mouse. The protocol: Groups of four to ten FVB/n mice were immunized with linear (NC) or disulfide-bonded (SS) peptide constructs (A) MVF563-598, (B) MVF585-598, (C) MVF597-626, or the linear peptide (D) MVF613-626. Each mouse is represented as an individual bar. Note that the scale in A is different then B-D;
Direct ELISAs were performed on sera from mice immunized with the cyclized (CYC) and linear (NC) constructs to determine differences in immunogenicity. Antibody titers against the corresponding immunogen were defined as the reciprocal of the highest dilution with absorbance ≧0.2. Each bar represents an individual mouse. Designation on the x-axis represents time at which sera was sampled, e.g. 1y+3 corresponds to serum collected three weeks after the first immunization. Neu-N mice have an FVB/n background and express normal rat neu proto-oncogene under control of a mammary-specific promoter. These mice show tolerance to neu relative to non-transgenic mice (Cancer Research 60, 3569).
Direct ELISA. U-bottom polyvinyl chloride plastic assay plates were coated with 100 μl of antigen at 2 μg/ml in PBS overnight at 4° C. Nonspecific binding sites were blocked for 1 hour with 200 μl PBS-1% BSA and plates were washed with PBT (phosphate-buffered saline containing 0.05% Tween 20 and 1% horse serum). Rabbit antiserum 1/500 or mouse antiserum 1/50 in PBT was added to antigen coated plates, serially diluted 1:2 in PBT, and incubated 2 hr at room temperature. After washing the plates, 50 μl of 1/500 goat anti-rabbit or goat anti-mouse IgG conjugated to horseradish peroxidase (Pierce Chemical Co.) was added to each well. Excess antibody conjugate was removed, and bound antibody was detected using 50 μl of 0.15% H2O2 in 24 mM citric acid, 5 mM sodium phosphate buffer, pH 5.2, with 0.5 mg/ml […] as the chromophore. Color development was allowed to proceed for 10 min and the reaction was stopped with 25 μl of 1% sodium dodecylsulfate. Absorbance was determined at 410 nm using a Dynatech MR700ELISA reader. Results are expressed as the mean absorbance of duplicate wells after subtraction of background.
The immunogenicity of the 4 constructs listed in Table 1 was determined using both the disulfide-bonded and linear constructs by immunizing groups of FVB/n mice (n=4-9) 6-8 weeks old. […] Three mice that received the cyclized form of 597-626 had titers above 120,000, while no mouse that received the linear form had titers above 120,000.
Background: ELISA stands for enzyme-linked immunosorbent assay.

A further assay has as its system trastuzumab. Description: ELISA binding of trastuzumab to peptides. As to conditions: FIG. 4. Here is the method: The peptide sequences are given on the x-axis. MVF316-339 is an Her-2 irrelevant control peptide;
Microtiter wells were coated overnight with 2 μg/ml of various peptides and then blocked with 1% BSA for one hour. […] Values shown are the mean of duplicate samples. SEM are indicated by error bars.

For assay [1], the system named is SKBR-3 breast cancer cell line. Description: Flow cytometry of peptide antibodies with SKBR-3 cells. As to conditions: purified antibodies from immunized mouse sera, FIG. 13. The assay is classed as cell-based, human. The protocol:
(§2) The reactivity of purified antibodies from immunized mouse sera was tested with (A) BT474 and (B) SKBR-3 breast cancer cell lines using flow cytometric analysis. Ab binding was detected with goat-anti mouse FITC-conjugated abs. The x-axis represents fluorescent intensity, and the y-axis represents relative cell number. Each histogram contains an overlay of mouse pre IgG, peptide antibodies, and AB2, a mouse mAb that binds HER-2.
Cell Culture. Stock cultures were maintained at 37° C. in a 5% CO2 incubator. All cell culture media, FCS, and supplements were purchased from GEBCO (Grand Island, N.Y.). The human breast adenocarcinoma cell lines SKBR-3 and MCF-7 were obtained from the American Type Culture Collection and was subcultured in McCoy's 5A or DMEM supplemented with 10% FCS and L-glutainine. Cav-1 was maintained in RPMI 1640 with 10% FCS and L-glutamine. […] SKBR3 is a breast tumor cell line which overexpresses the HER-2 protein while MCF-7 expresses the normal concentration of protein.
Indirect Binding Assay. SKBR3 cells or MCF-7 cells were plated at 5,000 cells/well in V-bottom plates (Linbro, McLean Va.). […] The cells were analyzed by a Coulter ELITE flow cytometer (Coulter, Hialeah, Fla.), which has an argon laser for excitation at 488 nm, and a 525 run band pass filter for FITC fluorescence 5.0×10^3 cells were counted for each sample and final processing was performed. […]
In general terms: A flow cytometer gives signals particle by particle.

The subject of assay [2] is BT-474 human breast cancer cells (HER-2high). Description: Flow cytometry of peptide antibodies with BT474 cells. The assay is classed as cell-based. The protocol:
Flow cytometry was used to assess whether antibodies from FVB/n mice induced by various constructs recognize native HER-2. BT-474 human breast cancer cells (HER-2high) were treated with 10 μg/mL of normal mouse Ig (negative control), mouse monoclonal Ab-2 (positive control), or peptide antibodies raised in FVB/n mice.
as §2
Indirect Binding Assay. SKBR3 cells or MCF-7 cells were plated at 5,000 cells/well in V-bottom plates (Linbro, McLean Va.). The cells were incubated with various concentrations of antibodies. […] The cells were analyzed by a Coulter ELITE flow cytometer (Coulter, Hialeah, Fla.), which has an argon laser for excitation at 488 nm, and a 525 run band pass filter for FITC fluorescence 5.0×10^3 cells were counted for each sample and final processing was performed. […]

The next assay deals with effector human PBMCs. The experiment in a line: IFN-γ release in the presence of effector human PBMCs. The assay is classed as cell-based. Particulars: antibodies against the construct.
In a further assay the target is T1, HER-2 protein (Homo sapiens, UniProt P04626).
T1 construct: endogenous in cells; host or cells: SKBR3 or MCF-7 according to the general method
Description: Flow cytometry binding of anti-peptide antibodies to HER-2 protein (Example 1). Type of assay: cell-based. As to conditions: antibodies against the epitope; flow cytometry binding to HER-2 protein. Here is the method:
Indirect Binding Assay. SKBR3 cells or MCF-7 cells were plated at 5,000 cells/well in V-bottom plates (Linbro, McLean Va.). The cells were incubated with various concentrations of antibodies. After being washed with Hank's Balanced Salts Solution (HBSS) the cells were incubated for one hour with fluorescein isothiocyanate (FITC)-conjugated goat anti-rabbit or goat anti-mouse antibody and fixed with formalin. A mouse monoclonal Ab (Oncogene Science, Cambridge, Mass.) was used as the positive control and an anti-CD3 Ab as the negative control. The cells were analyzed by a Coulter ELITE flow cytometer (Coulter, Hialeah, Fla.), which has an argon laser for excitation at 488 nm, and a 525 run band pass filter for FITC fluorescence 5.0×10^3 cells were counted for each sample and final processing was performed. Debris, cell clusters and dead cells were gated out by light scatted assessment before single parameter histograms were drawn.
The human EGFR disulfide pairings have been defined. Based on the high homology between EGFR and HER-2, the 628-647 epitope to 626-649 to incorporate two disulfide bonds between Cys-626 and Cys-634, and Cys-630 and Cys-642. Differential side chain protection and a specialized deprotection and oxidation successfully generated the cyclized product with a desired secondary structural characteristics as determined by CD measurements. […]

The next assay can be described thus: ADCC assay (Example 1). The assay is classed as cell-based. As to conditions: antibodies against the epitope.
Text: as §1

For assay [3], the system named is cells overexpressing HER-2. Description: Anchorage-independent growth assay. As to conditions: antibodies against the epitope. Type of assay: cell-based.
The mark [4] stands for this setting: by day 33, compared to both unimmunized and MVF immunized mice.

Positions of bridges follow the written chain, without caps; N, C: chain ends. No end group written: not given here. Bounds are passed on as bounds.

“KLLSLIKGVIVHRLEGVE-GPSL-CHPECQPQNGSVTCFGPEADQCVACAHYKDPPFCVA (KLLSLIKGVIVHRLEGVEGPSLCHPECQPQNGSVTCFGPEADQCVACAHYKDPPFCVA; disulfide (positions not given here)) [MVF 563 SS]”: the “mean tumor volumes at day 30” value in the assay with NT2.5 tumor cell line (listed as 563-598 SS) stood at 173.7292 mm^3. The immunogenicity result in the assay on FVB/n mice (FVB/n mice, Example 3, FIG. 3) is “highly immunogenic”. In the assay on FVB/n mice (two mice of the group, three weeks after the third immunization), the titers result is on record as “above 250,000”. Also, the binding to trastuzumab entry in the assay on trastuzumab is recorded as “Maximum binding”.

Take “KLLSLIKGVIVHRLEGVE-GPSL-IWKFPDEEGACQPL (KLLSLIKGVIVHRLEGVEGPSLIWKFPDEEGACQPL) [MVF 613]”: the “recognition of HER-2” value is “recognize HER-2” in assay [1] and “recognize HER-2” in assay [2] (purified antibodies from immunized mouse sera, FIG. 13). For the same substance, the tumor volume entry in the assay on NT2.5 tumor cell line (setting [4]) is “reduction in tumor volume”. For the same substance, the immunogenicity entry with FVB/n mice (FVB/n mice, Example 3, FIG. 3) is given as “highly immunogenic”. Moreover, in [2] (FVB/n purified antibodies, FIG. 5), the “shift in flow cytometry” value was “shifted relative to normal mouse antibodies”.

For the substance “KLLSLIKGVIVHRLEGVE-GPSL-VARCPSGVKPDLSYMPIWKFPDEEGACQPL [597-626 linear]”, in the assay on FVB/n mice (no mouse of the group above this value), the titers was ≤ 120,000.

For the substance “KLLSLIKGVIVHRLEGVE-GPSL-VACAHYKDPPFCVA (KLLSLIKGVIVHRLEGVEGPSLVACAHYKDPPFCVA; disulfide 25-34 (inferred)) [MVF 585 SS]”, the tumor volume entry in the assay on NT2.5 tumor cell line (setting [4]) is reported as “reduction in tumor volume”.

As to “KLLSLIKGVIVHRLEGVE-GPSL-CPINCTHSCVDLDDKGCPAEQRAS [626-649 cyclized]”, in the assay on NT2.5 tumor cell line, the doubling time stood at 6.63 days. Further, the tumor volume result with NT2.5 tumor cell line (immunized FVB/N mice challenged with NT2.5, compared to linear and control MVF immunized mice) is “reduction in tumor volume”. Moreover, the immunogenicity result with FVB/n mice (inbred FVB/N mice, Example 1) was “higher titers”. Also, in the assay on effector human PBMCs, the IFN-γ release entry was “able to elicit IFN-γ release” and the “higher levels of IFN-γ compared to the linear antibodies” value amounted to 25%. The substance also gave a mean log fluorescence at HER-2 protein of 2.29. For the same substance, the specific lysis in “ADCC assay (Example 1)” was 11%. Further, the “inhibition (reduction of growth)” value in assay [3] came out at 31%.

In the case of “KLLSLIKGVIVHRLEGVE-GPSL-LHCPALVTYNTDTFESMPNPEGRYTFGASCV (KLLSLIKGVIVHRLEGVEGPSLLHCPALVTYNTDTFESMPNPEGRYTFGASCV; also: cyclized) [MVF 266 CYC]”, the “tumor development and growth” value in the assay on NT2.5 tumor cell line (wild-type FVB/n mice, 3×106 NT2.5 cells s.c., 24 days, compared to MVF immunized mice only) is “delayed tumor development (A) and growth (B)”.

As to “KLLSLIKGVIVHRLEGVE [MVF control peptide, reference compound]”, the doubling time with NT2.5 tumor cell line came to 4.48 days.

Regarding “KLLSLIKGVIVHRLEGVE-GPSL-CPINCTHSCVDLDDKGCPAEQRAS [626-649 linear]”, in the assay with NT2.5 tumor cell line, the doubling time is reported as 4.31 days. In addition, the immunogenicity entry with FVB/n mice (inbred FVB/N mice, Example 1) is given as “immunogenic”. Also, the IFN-γ release entry with effector human PBMCs is on record as “able to elicit IFN-γ release”. On HER-2 protein, this substance yielded a mean log fluorescence of 1.65. The same substance yielded a specific lysis in the assay “ADCC assay (Example 1)” of 5.6%. Besides, the “inhibition (reduction of growth)” value in assay [3] is given as 58%.

For “KLLSLIKGVIVHRLEGVE-GPSL-CHPECQPQNGSVTCFGPEADQCVACAHYKDPPFCVA [563-598 NC]”, in the assay on NT2.5 tumor cell line, the “mean tumor volumes at day 30” value came to 166.517 mm^3.

(Values after patent publication US8470333B2, “Chimeric peptides comprising HER-2 B-cell epitopes and T-helper epitopes” (The Ohio State University Research Foundation, priority 2005, dated 2013).)
